Values of other authors, collected in patent publication US12357624B2, “Low dose pridopidine for Parkinson's Disease and other diseases associated with parkinsonism” (PRILENIA NEUROTHERAPEUTICS LTD., priority 2019, dated 2025).

System: B104 neuroblastoma cell line
Conditions: NE100 1 μM co-incubated with pridopidine; cited from earlier work

CCCN(CCC)CCc1ccc(OC)c(OCCc2ccccc2)c1 [NE100, reference compound]
BDNF secretion: BDNF secretion was inhibited
